# Experimental data reported in patent US20240101538A1, “PROTEIN-PROTEIN INTERACTION MODULATORS OF AURORA KINASE A AND THEIR USE IN THE PREVENTION AND/OR TREATMENT OF CANCER” (EBERHARD KARLS UNIVERSITÄT TÜBINGEN, priority 2020, published 2024).
# Where two headings read alike, the source gives them in different places.
# Legend:
# Type in all cases: cell-based, murine
# MYC-AURKA interaction = MYC-AURKA interaction (Mus musculus (Mouse), UniProt P97477); assay: Proximity ligation assay (PLA) for MYC and AURKA in NMP53^−/− cells; details: 2 h after treatment
# MYC-AURKA interaction, sequence (P97477 whole entry): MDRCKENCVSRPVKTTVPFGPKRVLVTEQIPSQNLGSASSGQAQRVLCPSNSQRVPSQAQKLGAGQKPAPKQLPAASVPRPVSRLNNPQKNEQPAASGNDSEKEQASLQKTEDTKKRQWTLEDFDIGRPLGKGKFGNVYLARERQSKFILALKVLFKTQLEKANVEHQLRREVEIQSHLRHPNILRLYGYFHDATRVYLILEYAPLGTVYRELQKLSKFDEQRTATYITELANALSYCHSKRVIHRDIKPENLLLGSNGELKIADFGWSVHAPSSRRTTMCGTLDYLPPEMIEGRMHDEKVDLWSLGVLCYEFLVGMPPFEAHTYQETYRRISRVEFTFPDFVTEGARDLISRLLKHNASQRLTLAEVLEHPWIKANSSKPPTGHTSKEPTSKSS
# Description: To examine whether this MYC degradation is associated with MYC-AURKA PPI disruption, the inventors performed proximity ligation assays (PLA) in NMP53^−/− cells. For Proximity Ligation Assay (PLA), 50 000 cells were seeded on 12 mm glass slides placed in 6 well plates. On the next day, the cells were treated with the indicated compounds or the corresponding DMSO concentration for 2 h (compound 2c [N-(5-((4-(1H-pyrazole-4-yl)benzyl)amino)-2-fluorophenyl)-3-(furan-2-yl)propanamide] and compound 3a [N-(2-fluoro-5-((4-(1-methyl-1H-pyrazole-4-yl)benzyl)amino)phenyl)-3-(furan-2-yl)propanamide]) or 24 h (alisertib) and fixed for 10 min in 100% MeOH at −20° C. The glass slides were removed from the 6 well plates and the cells permeabilized with TBS+0.3% Triton X-100 for 5 min. After washing with PBS and blocking with 5% BSA in TBS+0.05% Tween for 30 min, the slides were incubated with MYC (Abeam ab32072, 1:200) and AURKA (Abcam ab13824, 1:200) specific antibodies in 1% BSA in TBS+0.05% Tween for 120 min at RT and washed 3 times with PBS for 5 min, wherein the MYC/TPX2 and AURKA specific antibodies are derived from a different species. After a 20 min pre-incubation of two PLA probes, directed against either species of the MYC/TPX2 and AURKA specific antibodies, at RT (DUO92001 and DUO92005 Sigma Aldrich, diluted 1:10 in 1% BSA in TBS+0.05% Tween), the slides were incubated with the probes for 60 min at 37° C. in a humidified chamber. The slides were washed 3 times with 1× wash buffer A (Sigma Aldrich DUO82049) for 5 min and incubated with the ligase solution (ligase diluted 1:40 in 5× ligase buffer and ddH2O, Sigma Aldrich DUO92008) for 60 min at 37° C. in a humidified chamber. […] The foci per cell were counted in a way that the cytoplasmic foci are counted to the cell with the closest nucleus (DAPI). Significance was calculated with the GraphPad Prism 8.4.0 software (GraphPad Software, La Jolla, CA) by using the nonparametric Mann Whitney test.
# NMCdkn2a^ARF−/− cells = assay: Colony formation assay on NMCdkn2a^ARF−/− cells; details: Mus musculus, 120 h, 5 days, read-out: EC (NMCdkn2a^ARF−/−)
# Description: To evaluate the effect of small molecules equipped with R-spine interacting moieties, the inventors screened a focused library of proprietary p38a MAP-Kinase inhibitors which were equipped with R-spine interacting pharmacophores. To this end, the inventors utilized a screening system as developed in Dauch et al.^2 The screening system is based on colony formation assays of cell lines isolated from Nras-driven, Trp53-deficient murine HCCs, whose development is dependent on MYC (NMP53^−/− cells), as well as Nras-driven, Cdkn2a^ARF-deficient murine HCCs, which develop independently of MYC (NMCdkn2a^ARF−/− cells). Importantly, NMP53^−/− cells are sensitive to AURKA inhibitors, which induce a conformational shift in AURKA, whereas NMCdkn2a^ARF−/− are not sensitive to such compounds.
# For Colony Formation Assays, cells were seeded at a density of 50 000 cells per 6 well and next day treated with a 2-fold dilution series of the indicated compounds or the highest corresponding DMSO concentration as control. After 5 days, the cells were fixed with a 10% formaldehyde solution for 30 min, washed once with water, stained with a 0.5% crystal violet solution for 30 min and washed twice with water. The compounds effective concentration (EC) was determined according to the lowest concentration in the dilution series, that inhibited cell growth substantially. The resulting benzamide containing hit structure 1, with a twofold selectivity towards NMP53^−/− cells (effective concentration on NMP53^−/− cells (EC): 2 μM, EC on Cdkn2a^ARF−/−: 4 μM, FIG. 1), served as the inventors' starting point for further compound development.
# NMP53^−/− cells = assay: Cell viability assay (XTT-Assay); details: 3 days treatment, read-out: cellular IC50
# Description: (A) Colony formation assay of a tumor cell line (NMP53^−/− cells), incubated for 5 days with compound 3a [N-(2-fluoro-5-((4-(1-methyl-1H-pyrazole-4-yl)benzyl)amino)phenyl)-3-(furan-2-yl)-propanamide] as indicated, fixed and stained with crystal violet. (B) Viability measurement (XTT assay) of a tumor cell line (NMP53^−/− cells) treated for 3 days with a series of concentrations of compound 3a according to this invention. […] (C) Determination of the percentage of cell death (by means of propidium iodide staining) of a tumor cell line (NMP53^−/− cells) treated with compound 3a for 5 days.
# The cell viability assay (XTT-Assay) was used to determine cellular IC50 values. 1 000 cells were seeded per 96 well and treated with a 2-fold dilution series of the compounds on the next day. As a control, the cells were treated with DMSO according to the highest compound concentration (negative control) or 1.5 mM chloroquine (positive control). 3 days after treatment with the respective compound, or DMSO/chloroquine as a control, the XTT Assay was conducted according to the manufacturer's instructions (Invitrogen, X6493). The absorbance was measured with the Infinite M Plex plate reader (Tecan) at 450 nm. The IC50 was calculated by variable slope nonlinear regression utilizing GraphPad Prism 8.4.0 software (GraphPad Software, La Jolla, CA), with the DMSO treated cells resembling 100% cell viability and the chloroquine treated cells resembling o % cell viability.
# [1] = lowest concentration of 2-fold dilution series that inhibited cell growth substantially
Structure (SMILES),reduction of the MYC-AURKA interaction compared to DMSO (MYC-AURKA interaction) [%],minimal effective concentration (NMCdkn2a^ARF−/− cells; [1]) [µM],minimal effective concentration (NMCdkn2a^ARF−/− cells) [µM],"IC50 (NMP53^−/− cells; Mus musculus, 72 h) [nM]",IC50 (NMP53^−/− cells) [nM]
"O=C(CCc1ccco1)Nc1cc(NCc2ccc(-c3cn[nH]c3)cc2)ccc1F [Compound 2c, N-(5-((4-(1H-pyrazole-4-yl)benzyl)amino)-2-fluorophenyl)-3-(furan-2-yl)propanamide]",66.7,1,> 1,60,–
"Cn1cc(-c2ccc(CNc3ccc(F)c(NC(=O)CCc4ccco4)c3)cc2)cn1 [Compound 3a, N-(2-fluoro-5-((4-(1-methyl-1H-pyrazole-4-yl)benzyl)amino)phenyl)-3-(furan-2-yl)propanamide]",50,0.25 to 0.5,0.25 to 0.5,14,13
